Active and inactive are the calls of the source. Some results are limits rather than exact numbers.

A short description of assay [1]: HIV-1 Vif–A3G interaction blockers – biochemical, TR-FRET, GST-Vif 1-94, biotin-A3G peptide, dose response retest, primary screen (AID 1117319).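 Note: TR-FRET signal of purified GST-Vif binding a biotinylated A3G peptide; inhibitors lower the FRET signal by blocking Vif and A3G binding.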 Type of assay: functional.
Assay [2] deals with Bifunctional protein GlmU (Mycobacterium tuberculosis, UniProt P9WMN3). The assay is described as follows: Inhibitors of Mycobacterial Glucosamine-1-phosphate acetyl transferase (GlmU). Secondary screen. Also on record: species or system Mycobacterium tuberculosis H37Rv.
Assay [3] deals with fMet-Leu-Phe receptor (Homo sapiens, UniProt P21462). As to the kind of experiment: formyl peptide receptor binders – dose response (AID 519). Type of assay: functional.
The nature of assay [4]: potency of ADAM10 substrate cleavage blockers – biochemical, QFRET, dose response (AID 743254).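 Note: ADAM10 enzyme with the DM2 quenched FRET peptide as substrate; EDANS fluorescence gain as the protease cuts the substrate; inhibitor potency against ADAM10 proteolytic activity.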
In assay [5] the target is Disintegrin and metalloproteinase domain-containing protein 17 (Homo sapiens, UniProt P78536). As to the kind of experiment: inhibition of ADAM17 substrate cleavage – biochemical, quenched FRET substrate, counter-screen for ADAM10 exosite inhibitor project, dose response (AID 743253).
Assay [6] is described as follows: cells.
Assay [7] in a line: Trypanosoma cruzi growth suppression in host cells – NIH3T3 host cells, beta-gal luminescence, confirmation (AID 2044).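 Note: intracellular parasites grown in NIH/3T3 mouse fibroblasts as host cells; luminescent beta-galactosidase reporter signal from transgenic T. cruzi replicating inside host cells; inhibitors lower the luminescence signal.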 Type of assay: functional, cell-based.
The nature of assay [8]: NIH3T3 cell viability loss – ATP luminescence, mouse fibroblasts, counter-screen, dose response (AID 2010).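 Note: cells exposed to compound for about 90 hours before reading.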 Type of assay: functional, cell-based.
For assay [9], the target named is Prothrombin (Homo sapiens, UniProt P00734). The assay is described as follows: Thrombin 1536 HTS Dose Response Confirmation. [Related pubchem assays: 1046 (Thrombin 1536 HTS; hits were confirmed in this assay)]. Type of assay: functional.
Assay [10] concerns the target T1, Tyrosine-protein phosphatase non-receptor type 7 (Homo sapiens, UniProt P35236).
T1 sequence (P35236 whole entry): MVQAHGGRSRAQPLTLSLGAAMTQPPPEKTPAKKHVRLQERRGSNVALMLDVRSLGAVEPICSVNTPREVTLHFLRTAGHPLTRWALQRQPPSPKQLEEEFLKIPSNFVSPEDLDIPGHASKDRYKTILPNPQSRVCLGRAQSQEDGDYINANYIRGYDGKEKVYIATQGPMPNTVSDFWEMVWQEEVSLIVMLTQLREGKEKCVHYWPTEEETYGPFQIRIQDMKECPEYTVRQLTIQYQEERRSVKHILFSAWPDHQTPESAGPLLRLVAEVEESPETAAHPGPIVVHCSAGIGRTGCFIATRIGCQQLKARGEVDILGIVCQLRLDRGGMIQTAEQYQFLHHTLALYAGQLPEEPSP
As to the kind of experiment: HePTP tyrosine phosphatase activity blockers – biochemical, absorbance, leukemia target, primary screen (AID 521). Type of assay: functional.

Assay [11] can be described thus: A2780 cell killing – plate reader, dry powder samples, cytotoxicity control, dose response (AID 743046). Type of assay: functional, cell-based.
For assay [12], the target named is Paired box protein Pax-8 (Homo sapiens, UniProt Q06710). As to the kind of experiment: PAX8 transcriptional activity inhibition in RMG-I – RMG-I cells, luciferase, cherry-pick, dose response (AID 687027).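 Note: luciferase reporter driven by Pax8 target thyroperoxidase promoter measured by SteadyGlo luminescence.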 Type of assay: functional, cell-based.
Assay [13] in a line: OVCAR-3 cell viability loss – plate reader, dry powder samples, PAX8 inhibitor project, dose response (AID 743044). Type of assay: functional, cell-based.
Assay [14] in a line: OVCAR8 cell viability loss – plate reader, dry powder samples, PAX8 project, dose response (AID 743197). Type of assay: functional, cell-based. Particulars: OVCAR-8.
Assay [15] can be described thus: microbe, parasite or virus in culture. The note with it: Mycobacterium tuberculosis. Type of assay: functional.
Assay [16] concerns INS1. As to the kind of experiment: INS-1E survival protection against cytokine death – cell-based, luminescence, retest, dose response (AID 449756).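 Note: cell death triggered by IL-1 beta plus TNF-alpha plus IFN-gamma mixture; protective hits raise ATP signal compared with cytokine alone wells.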 Type of assay: functional. The note with it: Rattus norvegicus.
In assay [17] the target is T2, Microphthalmia-associated transcription factor (Homo sapiens, UniProt O75030).
T2 sequence (O75030 whole entry): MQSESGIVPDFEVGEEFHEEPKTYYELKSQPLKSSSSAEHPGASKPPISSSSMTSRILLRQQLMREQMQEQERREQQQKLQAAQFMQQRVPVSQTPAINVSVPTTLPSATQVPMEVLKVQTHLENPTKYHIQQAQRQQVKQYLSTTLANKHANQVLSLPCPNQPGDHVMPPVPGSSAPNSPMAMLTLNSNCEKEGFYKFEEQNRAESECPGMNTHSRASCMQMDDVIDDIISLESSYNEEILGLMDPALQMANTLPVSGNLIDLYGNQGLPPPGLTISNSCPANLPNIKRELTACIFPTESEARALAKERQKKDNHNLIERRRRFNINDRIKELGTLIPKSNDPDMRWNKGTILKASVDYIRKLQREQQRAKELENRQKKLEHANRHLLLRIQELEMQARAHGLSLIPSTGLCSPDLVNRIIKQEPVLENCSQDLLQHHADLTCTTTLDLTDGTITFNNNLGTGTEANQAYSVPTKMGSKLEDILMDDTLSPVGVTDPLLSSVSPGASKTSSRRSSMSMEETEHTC
The assay is described as follows: reducers of TRPM1 reporter luminescence, concentration series – cell-based, SK-MEL-5, cherry-picked, set 3, MITF inhibitor project, dose response (AID 493073).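 Note: SK-MEL-5 melanoma cells with luciferase driven by the MITF target TRPM1 promoter.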 Type of assay: functional.

Assay [18] in a line: NIH-3T3 fibroblast cytotoxicity, dose response, cytotoxicity control, cell-based, fluorescence, Alamar Blue, secondary assay (AID 2327).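 Note: NIH-3T3 mouse fibroblasts cultured with fluconazole at 8 µg/mL.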 Type of assay: functional.

Chain of fMet-Leu-Phe receptor (P21462 whole entry): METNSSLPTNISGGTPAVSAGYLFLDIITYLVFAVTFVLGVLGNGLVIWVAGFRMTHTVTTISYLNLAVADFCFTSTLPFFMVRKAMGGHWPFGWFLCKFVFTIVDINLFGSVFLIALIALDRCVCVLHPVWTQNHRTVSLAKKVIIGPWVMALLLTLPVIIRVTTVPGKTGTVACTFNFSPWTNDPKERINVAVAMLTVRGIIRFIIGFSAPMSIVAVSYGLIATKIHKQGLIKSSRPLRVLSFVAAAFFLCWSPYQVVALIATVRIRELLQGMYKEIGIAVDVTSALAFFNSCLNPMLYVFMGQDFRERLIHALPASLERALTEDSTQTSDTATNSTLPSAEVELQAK
Chain of Bifunctional protein GlmU (P9WMN3 whole entry): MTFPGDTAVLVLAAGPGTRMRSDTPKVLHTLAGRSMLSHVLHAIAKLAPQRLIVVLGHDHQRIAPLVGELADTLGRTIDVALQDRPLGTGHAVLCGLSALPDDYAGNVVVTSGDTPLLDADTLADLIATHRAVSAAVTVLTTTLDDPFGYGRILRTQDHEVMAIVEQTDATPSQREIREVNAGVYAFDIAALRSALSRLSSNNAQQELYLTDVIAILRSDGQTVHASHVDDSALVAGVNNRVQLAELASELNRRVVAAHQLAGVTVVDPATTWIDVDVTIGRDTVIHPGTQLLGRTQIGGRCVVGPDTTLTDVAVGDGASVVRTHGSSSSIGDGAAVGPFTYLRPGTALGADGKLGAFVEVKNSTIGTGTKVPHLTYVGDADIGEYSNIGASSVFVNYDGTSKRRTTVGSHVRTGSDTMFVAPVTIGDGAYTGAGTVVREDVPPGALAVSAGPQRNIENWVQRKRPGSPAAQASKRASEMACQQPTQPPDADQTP
Chain of Disintegrin and metalloproteinase domain-containing protein 17 (P78536 whole entry, the tested form may be a part): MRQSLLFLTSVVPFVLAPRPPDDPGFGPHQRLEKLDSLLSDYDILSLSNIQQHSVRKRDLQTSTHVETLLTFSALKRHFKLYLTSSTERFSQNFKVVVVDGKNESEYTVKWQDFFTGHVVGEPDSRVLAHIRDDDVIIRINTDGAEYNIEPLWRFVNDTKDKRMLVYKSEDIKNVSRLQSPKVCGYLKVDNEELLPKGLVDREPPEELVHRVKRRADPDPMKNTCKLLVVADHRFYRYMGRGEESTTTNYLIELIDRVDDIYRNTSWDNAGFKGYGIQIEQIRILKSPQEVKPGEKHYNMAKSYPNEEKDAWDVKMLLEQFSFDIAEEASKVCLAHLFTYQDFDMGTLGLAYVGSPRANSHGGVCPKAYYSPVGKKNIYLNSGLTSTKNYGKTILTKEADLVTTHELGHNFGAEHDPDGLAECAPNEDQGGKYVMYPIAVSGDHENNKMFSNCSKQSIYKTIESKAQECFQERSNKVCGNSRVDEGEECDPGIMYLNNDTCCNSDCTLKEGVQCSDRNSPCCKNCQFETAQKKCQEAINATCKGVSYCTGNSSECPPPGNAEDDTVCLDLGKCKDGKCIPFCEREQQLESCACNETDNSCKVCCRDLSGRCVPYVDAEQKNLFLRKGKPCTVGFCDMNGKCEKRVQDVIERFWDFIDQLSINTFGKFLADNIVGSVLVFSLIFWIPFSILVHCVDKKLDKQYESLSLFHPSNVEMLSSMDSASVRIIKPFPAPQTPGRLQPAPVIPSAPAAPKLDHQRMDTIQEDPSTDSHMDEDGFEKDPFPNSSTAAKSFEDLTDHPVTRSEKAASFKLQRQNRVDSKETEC
Chain of Paired box protein Pax-8 (Q06710 whole entry): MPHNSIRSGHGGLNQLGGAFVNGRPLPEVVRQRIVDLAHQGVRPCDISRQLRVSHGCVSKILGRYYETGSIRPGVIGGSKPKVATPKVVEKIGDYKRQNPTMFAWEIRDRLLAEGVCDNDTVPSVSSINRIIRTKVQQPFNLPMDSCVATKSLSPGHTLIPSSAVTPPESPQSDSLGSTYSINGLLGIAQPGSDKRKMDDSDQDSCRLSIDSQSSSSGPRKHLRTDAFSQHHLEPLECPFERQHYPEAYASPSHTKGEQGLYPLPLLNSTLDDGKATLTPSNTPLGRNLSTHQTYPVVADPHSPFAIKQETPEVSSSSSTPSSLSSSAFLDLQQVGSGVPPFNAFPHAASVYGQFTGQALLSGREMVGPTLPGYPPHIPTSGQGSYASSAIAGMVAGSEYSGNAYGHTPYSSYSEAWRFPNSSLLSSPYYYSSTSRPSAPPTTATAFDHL

In the case of `CN(C)c1ccc(/C=N\NC(=O)c2csnn2)cc1`, the half-inhibitory concentration (IC50) in [1] is > 100 µM (active).

With `CN1CCN(C(=S)NC(=O)c2ccc(Cl)cc2)CC1`, the concentration for half-maximal inhibition (IC50) in [2] was 132 µM (active).

Take `Cc1ccc(C(=O)C2=C(O)C(=O)N(CC(C)O)C2c2ccc(N(C)C)cc2)cc1` (configuration not stated): the Ki in [3] is > 66.7 µM (inactive).

Consider `Cc1ccc(-n2c(Cc3cccs3)nnc2SCC(=O)Nc2ccc(OCc3ccccc3)cc2)cc1`, for which the IC50 in assay [4] and in assay [5] was > 69.5 µM (inactive) in each case.

In the case of `Clc1ccc(SCCOCCN2CCc3ccccc3C2)cc1`, the EC50 in assay [6] is 0.081 µM (active); in [7] it was < 0.1 µM (active); in [8] it was > 60 µM (not active).

As to `COCCNc1nnc(SCC(=O)c2c[nH]c3ccccc23)s1`, the concentration for half-maximal inhibition (IC50) in [9] is > 50 µM (not active).

In the case of `C=CCOc1cccc(C2C(C(=O)c3ccco3)=C(O)C(=O)N2CCN2CCOCC2)c1` (configuration not stated), in assay [3], the Ki is > 66.7 µM (inactive).

Turning to `Cn1c(=O)oc2cc(S(=O)(=O)N3CCCC(C(=O)N4CCn5c4nc4ccccc45)C3)ccc21` (configuration not stated), in [10], the IC50 is reported as > 100 µM (not active).

As for `C[C@H]1CCCCO[C@@H](CN(C)S(=O)(=O)c2cccs2)[C@@H](C)CN([C@@H](C)CO)C(=O)c2cc(NS(=O)(=O)c3ccc(Cl)cc3)ccc2O1`, the concentration at half-maximal activity (AC50) in assay [11] is 14.1 µM (active); in assay [12], 7.93 µM (active); in assay [13], 42.6 µM (active); in assay [14] it was > 70 µM (inactive).

As to `CCOc1ccc(-[n+]2c(-c3ccc(Br)cc3)cn3c2CCCCC3)cc1`, the EC50 was 0.073 µM (active) in assay [6], < 0.1 µM (active) in assay [7], > 60 µM (not active) in [8] and > 160 µM (inactive) in assay [18]. Moreover, the CC50 in [15] was 21.2 µM (active). In addition, the values for the half-maximal activity concentration (AC50) in [16] and in assay [17] were 1.07 µM (active) and 3.87 µM (active), respectively.

For the origin of these results see ChEMBL document CHEMBL1201862, “PubChem BioAssay data set” (2004).
